Series [1] concerns female Sprague-Dawley rats, oxazolone (OX) contact dermatitis. Description: In Vivo Inflammation Assay (oxazolone contact dermatitis model). The conditions noted are these: for Inflammation Assay Glucose Effect / Inflammation Assay Anti-inflammatory Effect: rat; for Inflammation Assay Glucose Effect: glucose level compared to vehicle; for Inflammation Assay Anti-inflammatory Effect: relative to control compound. Also on record: key to Inflammation Assay Glucose Effect / GL *: +: the glucose level increased compared to vehicle; −: the glucose level decreased compared to vehicle. The method, then: In Vivo Inflammation Assay
Intact adult (6 month old) female Sprague-Dawley rats are used in the oxazolone (OX) contactdermatitis model. Rats were sensitized on the ventral abdomen with OX on Day 0. On Days 7 and 9, a randomly-selected ear was challenged (same ear each time) with OX; the other was treated with vehicle. Daily treatment begun on Day 7 and continued for 7d with test compounds at different doses and 1.3 mpk 6-methlyprednisolone or 0.1 mpk DEX as positive controls. The thickness of both ears are measured on Days 11 and 14. Necropsy occurred on Day 14. The rat is first weighed, then anesthetized in a CO2 chamber until near death. Approximately 5 ml whole blood is obtained by cardiac puncture. The rat is then examined for certain signs of death and completeness. Tissues are dissected in a highly stylized fashion. Then the following endpoints were evaluated: a) inhibiting ear inflammation induced by oxazalone, b) raising serum insulin, c) reducing serum ACTH, d) reducing spleen weight, e) reducing skin thickness, f) reducing body weight, g) increasing expression of bone-related genes with potential relationship to negative glucocorticoid effects on bone; e) changes in molecular markers that correlate with skin inflammation, skin thinning, muscle atrophy and glucose metabolism in liver. All blood samples were collected between 1330-1530 hours, ˜4-5 hrs after the last compound treatment.
Primary data for this assay are left and right ear thickness. Inter-ear thickness difference (etd) is used for the estimating the level of inflammation and effectiveness of the compounds is determined by their ability to reduce the increase the thickness of the inflamed ear. Back of the rat skin thickness, spleen weight, serum insulin as well as the effects of gcs on the expression of molecular markers in skin inflammation, skin atrophy, muscle atrophy and glucose metabolism in liver are measured. Data are analyzed by anova plus fisher plsd post-hoc test to identify intergroup differences.

For a further series, the target named is T1, GR (Homo sapiens, UniProt P04150).
T1 sequence (P04150 1-777): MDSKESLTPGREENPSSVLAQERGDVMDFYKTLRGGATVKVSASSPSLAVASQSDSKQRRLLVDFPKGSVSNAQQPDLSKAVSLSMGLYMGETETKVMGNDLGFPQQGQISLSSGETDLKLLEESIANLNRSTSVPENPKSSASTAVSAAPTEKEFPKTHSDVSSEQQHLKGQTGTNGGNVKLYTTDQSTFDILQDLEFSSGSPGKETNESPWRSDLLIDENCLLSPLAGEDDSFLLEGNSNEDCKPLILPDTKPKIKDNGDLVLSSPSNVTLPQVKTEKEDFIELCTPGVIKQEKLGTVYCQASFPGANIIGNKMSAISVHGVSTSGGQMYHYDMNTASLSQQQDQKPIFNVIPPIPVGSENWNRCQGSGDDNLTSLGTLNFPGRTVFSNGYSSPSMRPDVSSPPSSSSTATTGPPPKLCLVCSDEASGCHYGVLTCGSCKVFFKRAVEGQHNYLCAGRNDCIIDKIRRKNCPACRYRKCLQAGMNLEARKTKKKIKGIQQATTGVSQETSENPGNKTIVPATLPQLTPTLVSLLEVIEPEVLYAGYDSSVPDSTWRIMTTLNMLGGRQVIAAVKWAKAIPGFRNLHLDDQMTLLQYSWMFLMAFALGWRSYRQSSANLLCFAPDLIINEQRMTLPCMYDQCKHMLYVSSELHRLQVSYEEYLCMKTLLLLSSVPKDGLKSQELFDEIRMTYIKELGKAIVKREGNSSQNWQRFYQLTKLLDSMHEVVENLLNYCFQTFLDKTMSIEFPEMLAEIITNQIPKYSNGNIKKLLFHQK
Description: Transrepression Assay (GITAR), TNFα-β-lactamase reporter, U937 cells. Format: cell-based. Also noted: U937 cells contain an endogenous glucocorticoid receptor (GR); endogenous in cells; host or cells: U937 cells stably transfected with the TNF-alpha promoter beta-lactamase reporter. An excerpt: This assay assesses the ability of test compounds to control transcription from the TNFα-β-lactamase reporter gene in U937 cells, a human myelomonocytic leukemia cell line that naturally expresses the human GR. The assay measures compound dependent-repression of the TNFa promoter linked to a reporter gene.
The human U937 cells that had been stablely transfected with the TNF-α promoter driving […] are used for this assay. U937 cells contain an endogenous glucocorticoid receptor (GR). […] 50,000 cells/well are plated in 96 well black-walled plates the day of assay. Test compounds are added 10 μL/well, and cells are incubated at 37° C. for 30˜45 min. For assaying compounds, first dilute 1:10 in DMSO to make 1 mM, then further dilute 1:100 in medium to make 10× stock prior to adding to the cells. Add 50 ng/ml PMA (Sigma, cat#P8139) 10 μL/well to a final concentration 5 ng/ml, and 1 μg/ml LPS (Sigma, cat#L4130) 10 μL/well to a final concentration 100 ng/ml. Incubate cells at 37° C. overnight for ˜18 hr. PMA is stored frozen as 100 μg/ml stock in DMSO. Dilute 1:10 in DMSO for a working stock of […] and store at −20 C. For assaying, dilute the 10 μg/ml working stock 1:200 in medium to make a 10× solution (50 ng/ml). Store frozen LPS at 1 mg/ml in PBS, dilute 1:1000 in medium to make 10× (1 μg/ml) for the assay. Add 6× loading buffer (CCF2-AM) 20 μL/well, and incubate at room temperature for 70˜90 min. […] The activity repressed by 100 nM dexamethasone alone is set as 100% activity.

The mark [2] stands for this setting: U937 cells, inflection point, read-out: Transrepression U937 Cells GITAR IP.
Where [3] appears, read: U-937, U937 cells, activity repressed by 100 nM dexamethasone set as 100%, read-out: Transrepression U937 Cells GITAR Emax.

pEC50: −log10 of the molar value. Read-outs that look alike come from different tables or passages of the source.

As usually defined, the Emax is the size of the effect at its maximum, as opposed to the concentration needed.

For the compound `CO[C@@]1(CCc2ccccc2Cl)CCC2=Cc3c(cnn3-c3ccc(F)cc3)C[C@@]21C` [Ex. 103 WO 04/075840 A2, reference compound], the “AI*” value in series [1] (Table 4, literature compounds, anti-inflammatory effect) is reported as “+ (the anti-inflammatory activity was equal to or greater than 40% of the effect generated by the control compound)”. The “GL *” value in series [1] (Table 4, literature compounds, glucose effect) is reported as “+”. The pEC50 at GR (Table 4, literature compounds, read-out: GITAR IP) was 6.72. Besides, the Emax at GR (U-937, Table 4, literature compounds, read-out: GITAR EMAX) was 93.3%.
On to `COc1ccnc(C(O)C[C@]2(O)CCC3=Cc4c(cnn4-c4ccc(F)cc4)C[C@@]32C)c1` (stereo partly drawn) [Example 3, (4αS,5R)-1-(4-fluorophenyl)-5-[2-hydroxy-2-(4-methoxypyridin-2-yl)ethyl]-4α-methyl-1,4,4α,5,6,7-hexahydrocyclopenta[f]indazol-5-ol], for which, in series [1], the “Inflammation Assay Glucose Effect” value was “+” and the “Inflammation Assay Anti-inflammatory Effect” value is reported as “+ (the anti-inflammatory activity was equal to or greater than 40% of the effect generated by the control compound)”. The pEC50 at GR (setting [2]) was 6.95. For the same compound, at GR (setting [3]), the Emax came to 81.3%.
For `C[C@]12Cc3cnn(-c4ccc(F)cc4)c3C=C1CC[C@@]2(O)CC(O)c1cc(C#N)ccn1` (stereo partly drawn) [Example 9, 2-{2-[(4αS,5R)-1-(4-fluorophenyl)-5-hydroxy-4α-methyl-1,4,4α,5,6,7-hexahydrocyclopenta[f]indazol-5-yl]-1-hydroxyethyl}pyridine-4-carbonitrile], in series [1], the “Inflammation Assay Glucose Effect” value was “+” and the “Inflammation Assay Anti-inflammatory Effect” value is reported as “+ (the anti-inflammatory activity was equal to or greater than 40% of the effect generated by the control compound)”. In addition, the pEC50 on GR (setting [2]) is 7.32. The Emax at GR (setting [3]) was 74.9%.
As for `Cc1ccnc(C(O)C[C@]2(O)CCC3=Cc4c(cnn4-c4ccc(F)cc4)C[C@@]32C)c1` (stereo partly drawn) [Example 11, (4αS,5R)-1-(4-fluorophenyl)-5-[2-hydroxy-2-(4-methylpyridin-2-yl)ethyl]-4α-methyl-1,4,4α,5,6,7-hexahydrocyclopenta[f]indazol-5-ol], in series [1], the “Inflammation Assay Glucose Effect” value is on record as “+” and the “Inflammation Assay Anti-inflammatory Effect” value is recorded as “+ (the anti-inflammatory activity was equal to or greater than 40% of the effect generated by the control compound)”. Moreover, on GR (setting [2]), the pEC50 is 7.32. In addition, at GR (setting [3]), the Emax came out at 69.1%.

(Values after US20120214846A1, “HEXAHYDROCYCLOPENTYL[F]INDAZOLE PYRIDYL ETHANOLS AND DERIVATIVES THEREOF AS SELECTIVE GLUCOCORTICOID RECEPTOR MODULATORS” (MERCK SHARP & DOHME CORP, priority 2009, published 2012).)
